Laboratory results: patent US20240327430A1 (Breakpoint Therapeutics GmbH, priority 2023, published 2024)

target: truncated Polθ protein (Polθ-Hel containing the helicase domain (67-894)) (Homo sapiens (Human), UniProt O75417); assay: Polθ ATPase assay (Biological Assay 1, ADP-Glo luminescence); assay type: biochemical; conditions: Polθ-Hel 0.5 nM, DNA substrate 500 nM, ATP 60 μM, 23° C.; read-out: Pole ATPase assay IC50
In short: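 Polθ-Hel (0.5 nM) with 500 nM ssDNA oligo in pH 8.8 Tris buffer (5 mM MgCl2, 1 mM DTT) was preincubated with compound 30 min at 23 °C. The reaction ran 60 min after 60 μM ATP was added (stated as the added solution, not final). ADP formed was detected by ADP-Glo luminescence to derive IC50.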

Sequence of truncated Polθ protein (Polθ-Hel containing the helicase domain (67-894)) (O75417 67-894): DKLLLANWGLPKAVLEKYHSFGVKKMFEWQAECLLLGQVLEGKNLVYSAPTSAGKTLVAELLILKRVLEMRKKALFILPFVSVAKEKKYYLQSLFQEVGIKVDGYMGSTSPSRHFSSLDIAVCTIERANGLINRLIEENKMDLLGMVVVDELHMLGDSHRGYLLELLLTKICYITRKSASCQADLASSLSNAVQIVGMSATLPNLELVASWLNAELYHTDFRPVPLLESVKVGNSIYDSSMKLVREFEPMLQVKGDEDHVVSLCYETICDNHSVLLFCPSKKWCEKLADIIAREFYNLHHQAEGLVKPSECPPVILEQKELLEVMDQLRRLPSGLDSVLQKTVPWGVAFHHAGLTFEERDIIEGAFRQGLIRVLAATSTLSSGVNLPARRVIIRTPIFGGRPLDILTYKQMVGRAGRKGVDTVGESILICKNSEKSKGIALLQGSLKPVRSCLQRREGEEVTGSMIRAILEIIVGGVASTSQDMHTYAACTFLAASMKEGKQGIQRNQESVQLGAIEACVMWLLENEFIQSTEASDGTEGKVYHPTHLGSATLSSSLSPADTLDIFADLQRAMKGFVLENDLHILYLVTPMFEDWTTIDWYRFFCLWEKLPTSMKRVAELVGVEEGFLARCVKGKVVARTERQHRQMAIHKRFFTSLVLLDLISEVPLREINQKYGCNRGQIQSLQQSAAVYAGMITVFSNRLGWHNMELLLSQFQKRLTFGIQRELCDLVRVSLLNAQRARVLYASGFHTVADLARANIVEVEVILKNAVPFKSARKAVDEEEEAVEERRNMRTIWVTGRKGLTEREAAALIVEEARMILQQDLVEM

Compound	IC50
COc1cnc(Cl)cc1-c1cc(C)ncc1C(=O)Nc1nc2cnc(N3CCC4(CC3)COC4)nc2s1 [Example 53, 2′-chloro-5′-methoxy-6-methyl-N-(5-{2-oxa-7-azaspiro[3.5]nonan-7-yl}-[1,3]thiazolo[5,4-d]pyrimidin-2-yl)-[4,4′-bipyridine]-3-carboxamide]	< 100 nM
COc1cnc(Cl)cc1-c1cc(C)ncc1C(=O)Nc1nc2ncc(N3CCOCC3)cc2s1 [Example 67, 2′-chloro-5′-methoxy-6-methyl-N-[6-(morpholin-4-yl)-[1,3]thiazolo[4,5-b]pyridin-2-yl]-[4,4′-bipyridine]-3-carboxamide]	< 100 nM
COc1cnc(Cl)cc1-c1cc(C)ncc1C(=O)Nc1nc2cnc(N3CCOCC3)nc2s1 [Example 22, 2′-chloro-5′-methoxy-6-methyl-N-[5-(morpholin-4-yl)-[1,3]thiazolo[5,4-d]pyrimidin-2-yl]-[4,4′-bipyridine]-3-carboxamide]	< 100 nM
COc1cnc(Cl)cc1-c1cc(C)ncc1C(=O)Nc1nc2cnc(N3CC(OC)C3)nc2s1 [Example 47, 2′-chloro-5′-methoxy-N-[5-(3-methoxyazetidin-1-yl)-[1,3]thiazolo[5,4-d]pyrimidin-2-yl]-6-methyl-[4,4′-bipyridine]-3-carboxamide]	< 100 nM
COc1cnc(Cl)cc1-c1cc(C)ncc1C(=O)Nc1nc2ccc(N3CCC(O)CC3)nc2s1 [Example 74, 2′-chloro-N-[5-(4-hydroxypiperidin-1-yl)-[1,3]thiazolo[5,4-b]pyridin-2-yl]-5′-methoxy-6-methyl-[4,4′-bipyridine]-3-carboxamide]	< 100 nM
COc1cnc(Cl)cc1-c1cc(C)ncc1C(=O)Nc1nc2ncc(N3CCC(O)CC3)cc2s1 [Example 71, 2′-chloro-N-[6-(4-hydroxypiperidin-1-yl)-[1,3]thiazolo[4,5-b]pyridin-2-yl]-5′-methoxy-6-methyl-[4,4′-bipyridine]-3-carboxamide]	< 100 nM
COc1cnc(Cl)cc1-c1cc(C)ncc1C(=O)Nc1nc2cnc(N3CCCC(C#N)C3)nc2s1 (stereo not shown) [Example 35, 2′-chloro-N-[5-(3-cyanopiperidin-1-yl)-[1,3]thiazolo[5,4-d]pyrimidin-2-yl]-5′-methoxy-6-methyl-[4,4′-bipyridine]-3-carboxamide]	< 100 nM
COc1cnc(Cl)cc1-c1cc(C)ncc1C(=O)Nc1nc2cnc(NCC(C)(C)O)nc2s1 [Example 77, 2′-chloro-N-{5-[(2-hydroxy-2-methylpropyl)amino]-[1,3]thiazolo[5,4-d]pyrimidin-2-yl}-5′-methoxy-6-methyl-[4,4′-bipyridine]-3-carboxamide]	< 100 nM
COc1ccccc1-c1cnccc1C(=O)Nc1nc2ncccc2s1 [Example 11, 3-(2-methoxyphenyl)-N-{[1,3]thiazolo[4,5-b]pyridin-2-yl}pyridine-4-carboxamide]	> 1000 nM
COc1cnc(Cl)cc1-c1cc(C)ncc1C(=O)Nc1nc2cnc(N3CC[C@H](O)C3)nc2s1 [Example 23, 2′-chloro-N-{5-[(3S)-3-hydroxypyrrolidin-1-yl]-[1,3]thiazolo[5,4-d]pyrimidin-2-yl}-5′-methoxy-6-methyl-[4,4′-bipyridine]-3-carboxamide]	< 100 nM
COc1cnc(Cl)cc1-c1cc(C)ncc1C(=O)Nc1nc2cnc(NC(C)C)nc2s1 [Example 52, 2′-chloro-5′-methoxy-6-methyl-N-{5-[(propan-2-yl)amino]-[1,3]thiazolo[5,4-d]pyrimidin-2-yl}-[4,4′-bipyridine]-3-carboxamide]	< 100 nM
COc1cnc(Cl)cc1-c1cc(C)ncc1C(=O)Nc1nc2cnc(N3CC[C@@H](O)C3)nc2s1 [Example 26, 2′-chloro-N-{5-[(3R)-3-hydroxypyrrolidin-1-yl]-[1,3]thiazolo[5,4-d]pyrimidin-2-yl}-5′-methoxy-6-methyl-[4,4′-bipyridine]-3-carboxamide]	< 100 nM
COc1cnc(Cl)cc1-c1cc(C)ncc1C(=O)Nc1nc2ccc(C#N)cc2s1 [Example 3, 2′-chloro-N-(6-cyano-1,3-benzothiazol-2-yl)-5′-methoxy-6-methyl-[4,4′-bipyridine]-3-carboxamide]	< 100 nM
COc1cnc(Cl)cc1-c1cc(C)ncc1C(=O)Nc1nc2cnc(N3CCC4(COC4)C3)nc2s1 [Example 76, 2′-chloro-5′-methoxy-6-methyl-N-(5-{2-oxa-6-azaspiro[3.4]octan-6-yl}-[1,3]thiazolo[5,4-d]pyrimidin-2-yl)-[4,4′-bipyridine]-3-carboxamide]	< 100 nM
COc1cnc(Cl)cc1-c1cc(C)ncc1C(=O)Nc1nc2ccc(N3CCCC3=O)cc2s1 [Example 56, 2′-chloro-5′-methoxy-6-methyl-N-[6-(2-oxopyrrolidin-1-yl)-1,3-benzothiazol-2-yl]-[4,4′-bipyridine]-3-carboxamide]	< 100 nM
COc1cnc(C(F)F)cc1-c1cc(C)ncc1C(=O)Nc1nc2cnc(N3CCOCC3)nc2s1 [Example 89]	< 100 nM
COc1cnc(Cl)cc1-c1cc(C)ncc1C(=O)Nc1nc2ccc(NS(C)(=O)=O)cc2s1 [Example 41, 2′-chloro-N-(6-methanesulfonamido-1,3-benzothiazol-2-yl)-5′-methoxy-6-methyl-[4,4′-bipyridine]-3-carboxamide]	< 100 nM
COc1cnc(Cl)cc1-c1cc(C)ncc1C(=O)Nc1nc2cnc(N3CCS(=O)(=O)CC3)nc2s1 [Example 27, 2′-chloro-N-[5-(1,1-dioxo-1λ^6-thiomorpholin-4-yl)-[1,3]thiazolo[5,4-d]pyrimidin-2-yl]-5′-methoxy-6-methyl-[4,4′-bipyridine]-3-carboxamide]	< 100 nM
COc1ccccc1-c1cnccc1C(=O)Nc1nc2cncnc2s1 [Example 8, 3-(2-methoxyphenyl)-N-{[1,3]thiazolo[5,4-d]pyrimidin-2-yl}pyridine-4-carboxamide]	100 to 1000 nM
COc1cnc(Cl)cc1-c1cc(C)ncc1C(=O)Nc1nc2cnc(N3CCOCC3)cc2s1 [Example 65, 2′-chloro-5′-methoxy-6-methyl-N-[6-(morpholin-4-yl)-[1,3]thiazolo[4,5-c]pyridin-2-yl]-[4,4′-bipyridine]-3-carboxamide]	< 100 nM
COc1cnc(Cl)cc1-c1cc(C)ncc1C(=O)Nc1nc2cnc(N3CC4(CC(O)C4)C3)nc2s1 [Example 81, 2′-chloro-N-(5-{6-hydroxy-2-azaspiro[3.3]heptan-2-yl}-[1,3]thiazolo[5,4-d]pyrimidin-2-yl)-5′-methoxy-6-methyl-[4,4′-bipyridine]-3-carboxamide]	< 100 nM
COc1cnc(Cl)cc1-c1cc(C)ncc1C(=O)Nc1nc2cnc(N3CC4(COC4)C3)nc2s1 [Example 29, 2′-chloro-5′-methoxy-6-methyl-N-(5-{2-oxa-6-azaspiro[3.3]heptan-6-yl}-[1,3]thiazolo[5,4-d]pyrimidin-2-yl)-[4,4′'-bipyridine]-3-carboxamide]	< 100 nM
COc1cnc(Cl)cc1-c1cc(C)ncc1C(=O)Nc1nc2cnc(N3C[C@@H]4C[C@H]3CO4)nc2s1 [Example 34, 2′-chloro-5′-methoxy-6-methyl-N-{5-[(1S,4S)-2-oxa-5-azabicyclo[2.2.1]heptan-5-yl]-[1,3]thiazolo[5,4-d]pyrimidin-2-yl}-[4,4′-bipyridine]-3-carboxamide]	< 100 nM

same assay, conditions: Table B; compounds of Experimental Part B, in vitro; read-out: Polθ ATPase assay IC50

Compound	IC50
COc1cnc(Cl)cc1-c1cc(C)ncc1C(=O)Nc1nc2cc(OCCOC(C)=O)ccc2s1 [Example 123, 2-[(2-{2′-chloro-5'-methoxy-6-methyl-[4,4′-bipyridine]-3-amido}-1,3-benzothiazol-5-yl)oxy]ethyl acetate]	< 100 nM
COc1cnc(Cl)cc1-c1cc(C)ncc1C(=O)Nc1nc2cnc(N3CC(C)(OC)C3)cc2s1 [Example 131, 2′-chloro-5′-methoxy-N-[6-(3-methoxy-3-methylazetidin-1-yl)-[1,3]thiazolo[4,5-c]pyridin-2-yl]-6-methyl-[4,4′-bipyridine]-3-carboxamide]	< 100 nM
COc1cnc(Cl)cc1-c1cc(C)ncc1C(=O)Nc1nc2cc(OCCOC(F)(F)F)ccc2s1 [Example 115, 2′-chloro-5′-methoxy-6-methyl-N-{5-[2-(trifluoromethoxy)ethoxy]-1,3-benzothiazol-2-yl}-[4,4′-bipyridine]-3-carboxamide]	100 to 1000 nM
COc1cnc(Cl)cc1-c1cc(C)ncc1C(=O)Nc1nc2cnc(NC[C@H](C)O)nc2s1 [Example 96, 2′-chloro-N-(5-{[(2S)-2-hydroxypropyl]amino}-[1,3]thiazolo[5,4-d]pyrimidin-2-yl)-5′-methoxy-6-methyl-[4,4′-bipyridine]-3-carboxamide]	< 100 nM
COc1cnc(Cl)cc1-c1cc(C)ncc1C(=O)Nc1nc2cc(OCC(=O)N(C)C)ccc2s1 [Example 110, 2′-chloro-N-{5-[(dimethylcarbamoyl)methoxy]-1,3-benzothiazol-2-yl}-5′-methoxy-6-methyl-[4,4′-bipyridine]-3-carboxamide]	< 100 nM
COc1ccc2sc(NC(=O)c3cnc(C)cc3-c3cc(Cl)ncc3OC)nc2c1 [Example 106, 2′-chloro-5′-methoxy-N-(5-methoxy-1,3-benzothiazol-2-yl)-6-methyl-[4,4′-bipyridine]-3-carboxamide]	< 100 nM
COc1cnc(Cl)cc1-c1cc(C)ncc1C(=O)Nc1nc2cnc(OCC(C)(C)O)nc2s1 [Example 133, 2′-chloro-N-[5-(2-hydroxy-2-methylpropoxy)-[1,3]thiazolo[5,4-d]pyrimidin-2-yl]-5′-methoxy-6-methyl-[4,4′-bipyridine]-3-carboxamide]	< 100 nM
COc1cnc(Cl)cc1-c1cc(C)ncc1C(=O)Nc1nc2cc(OCCN3CCOCC3)ccc2s1 [Example 111, 2′-chloro-5′-methoxy-6-methyl-N-{5-[2-(morpholin-4-yl)ethoxy]-1,3-benzothiazol-2-yl}-[4,4′-bipyridine]-3-carboxamide]	< 100 nM
